#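 Dose response: 5 concentrations. Exposure: 48 h. Format: 96-well plates. Endpoint: linear interpolation; highest concentration if not reached. GI50 = concentration required for 50% inhibition of growth. TGI marks complete inhibition of growth.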
# What was measured:
# Experiment in all cases: NCI tumour cell line growth inhibition, 48 h
# 786-0 renal = system: 786-0 renal
# A498 renal = system: A498 renal
# A549 NSCLC = system: A549 NSCLC
# ACHN renal = system: ACHN renal
# BT-549 breast = system: BT-549 breast
# CAKI-1 renal = system: CAKI-1 renal
# CCRF-CEM leukemia = system: CCRF-CEM leukemia
# COLO 205 colon = system: COLO 205 colon
# DU-145 prostate = system: DU-145 prostate
# EKVX NSCLC = system: EKVX NSCLC
# HCC-2998 colon = system: HCC-2998 colon
# HCT-116 colon = system: HCT-116 colon
# HCT-15 colon = system: HCT-15 colon
# HOP-62 NSCLC = system: HOP-62 NSCLC
# HOP-92 NSCLC = system: HOP-92 NSCLC
# HS 578T breast = system: HS 578T breast
# HT29 colon = system: HT29 colon
# IGROV1 ovarian = system: IGROV1 ovarian
# K-562 leukemia = system: K-562 leukemia
# KM12 colon = system: KM12 colon
# LOX IMVI melanoma = system: LOX IMVI melanoma
# M14 melanoma = system: M14 melanoma
# MALME-3M melanoma = system: MALME-3M melanoma
# MCF7 breast = system: MCF7 breast
# MDA-MB-231 breast = system: MDA-MB-231 breast
# MDA-MB-435 = system: MDA-MB-435
# MOLT-4 leukemia = system: MOLT-4 leukemia
# NCI-H226 lung = system: NCI-H226 lung
# NCI-H23 lung = system: NCI-H23 lung
structure (smiles),measurement,setting,value
CCCCCCNC(=O)Oc1ccc(/C(=C(\C)c2ccccc2)c2ccc(OCCN3CCCCC3)cc2)cc1,GI50,786-0 renal,1.69 µM
same,TGI,786-0 renal,3.12 µM
same,GI50,A498 renal,7.46 µM
same,TGI,A498 renal,21.6 µM
same,GI50,A549 NSCLC,4.31 µM
same,TGI,A549 NSCLC,18.6 µM
same,GI50,ACHN renal,2.85 µM
same,TGI,ACHN renal,10.9 µM
same,GI50,BT-549 breast,2.38 µM
same,TGI,BT-549 breast,7.1 µM
same,GI50,CAKI-1 renal,2.2 µM
same,TGI,CAKI-1 renal,5.11 µM
same,GI50,CCRF-CEM leukemia,3.05 µM
same,TGI,CCRF-CEM leukemia,17.2 µM
same,GI50,COLO 205 colon,1.78 µM
same,TGI,COLO 205 colon,3.57 µM
same,GI50,DU-145 prostate,3.69 µM
same,TGI,DU-145 prostate,15.3 µM
same,GI50,EKVX NSCLC,4.11 µM
same,TGI,EKVX NSCLC,18 µM
same,GI50,HCC-2998 colon,2.96 µM
same,TGI,HCC-2998 colon,8.92 µM
same,GI50,HCT-116 colon,1.49 µM
same,TGI,HCT-116 colon,2.89 µM
same,GI50,HCT-15 colon,1.53 µM
same,TGI,HCT-15 colon,3.52 µM
same,GI50,HOP-62 NSCLC,3.22 µM
same,TGI,HOP-62 NSCLC,10.9 µM
same,GI50,HOP-92 NSCLC,1.51 µM
same,TGI,HOP-92 NSCLC,5.04 µM
same,GI50,HS 578T breast,2.71 µM
same,TGI,HS 578T breast,13.4 µM
same,GI50,HT29 colon,1.38 µM
same,TGI,HT29 colon,3.89 µM
same,GI50,IGROV1 ovarian,3.01 µM
same,TGI,IGROV1 ovarian,8.85 µM
same,GI50,K-562 leukemia,1.7 µM
same,TGI,K-562 leukemia,4.96 µM
same,GI50,KM12 colon,2.61 µM
same,TGI,KM12 colon,7.63 µM
same,GI50,LOX IMVI melanoma,1.71 µM
same,TGI,LOX IMVI melanoma,3.09 µM
same,GI50,M14 melanoma,1.98 µM
same,TGI,M14 melanoma,3.97 µM
same,GI50,MALME-3M melanoma,1.75 µM
same,TGI,MALME-3M melanoma,3.46 µM
same,GI50,MCF7 breast,0.0428 µM
same,TGI,MCF7 breast,3.64 µM
same,GI50,MDA-MB-231 breast,2.09 µM
same,TGI,MDA-MB-231 breast,4.96 µM
same,GI50,MDA-MB-435,1.84 µM
same,TGI,MDA-MB-435,4.01 µM
same,GI50,MOLT-4 leukemia,2.68 µM
same,TGI,MOLT-4 leukemia,9.66 µM
same,GI50,NCI-H226 lung,5.91 µM
same,TGI,NCI-H226 lung,21.4 µM
same,GI50,NCI-H23 lung,3.06 µM
